According to patent publication US7737155B2, “Nitrogen-containing heterocyclic compounds and methods of use thereof” (Schering Corporation, priority 2005, dated 2010):

What follows are compounds tested against recombinant human nicotinic acid receptor (NAR) (Homo sapiens, UniProt Q8TDS4) (assay: Nicotinic Acid Receptor Assay: inhibition of forskolin-stimulated cAMP accumulation in CHO cells (MesoScale Discovery cAMP kit)). Conditions: CHO cells expressing recombinant human NAR; forskolin-stimulated cAMP; read-out: NA EC50 camp.
Assay type: cell-based
Procedure: The nicotinic acid receptor agonist activity of the inventive compounds was determined by following the inhibition of forskolin-stimulated cAMP accumulation in cells using the MesoScale Discovery cAMP detection kit following the manufacture's protocol. Briefly, Chinese Hamster Ovary (CHO) cells expressing recombinant human nicotinic acid receptor (NAR) were harvested enzymatically, washed 1× in phosphate buffered saline (PBS) and resuspended in PBS containing 0.5 mM IBMX at 3×10^6 cells/mL. Ten μL of cell suspension was added to each well of a 384-well plate which contained 10 μL of test compounds. Test compounds were diluted with PBS containing 6 μM of forskolin. Plates were incubated for 30 minutes at room temperature after the addition of cells. Lysis buffer containing cAMP-Tag was added to each well (10 μL/well) as per the manufacturer's protocol. Plates were then incubated from 45 minutes to overnight. Prior to reading, 10 μL of read buffer was added to each well, and the plate was read in a Sector 6000 plate imager. The signal was converted to cAMP concentration using a standard curve run on each plate.

recombinant human nicotinic acid receptor (NAR), sequence (Q8TDS4 whole entry): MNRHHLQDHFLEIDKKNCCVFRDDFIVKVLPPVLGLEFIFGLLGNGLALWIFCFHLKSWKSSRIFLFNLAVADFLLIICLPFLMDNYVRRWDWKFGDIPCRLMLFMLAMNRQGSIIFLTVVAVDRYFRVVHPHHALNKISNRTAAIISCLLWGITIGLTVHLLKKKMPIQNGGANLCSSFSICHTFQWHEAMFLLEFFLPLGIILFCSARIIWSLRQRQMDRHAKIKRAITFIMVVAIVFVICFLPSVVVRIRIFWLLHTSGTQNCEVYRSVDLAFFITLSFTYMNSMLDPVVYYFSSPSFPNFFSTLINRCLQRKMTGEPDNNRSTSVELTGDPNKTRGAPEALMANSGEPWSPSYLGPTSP

Compound	EC50 [nM]
O=c1cc(CCCCC2CC2)c2c(=O)n(C3CCC3)c(=O)[nH]c2o1 [Compound 200]	100 to 1000
O=c1[nH]c(=O)c2c(CC3C[C@@H]4CC[C@H]3C4)cc(=O)oc2[nH]1 (stereo partly shown) [Compound 201]	> 1000
O=c1[nH]c(=O)c2c(CC3Cc4ccccc4C3)cc(=O)oc2[nH]1 [Compound 202]	100 to 1000
CCc1c(-c2ccccc2)c(=O)oc2[nH]c(=O)n(C3CCC3)c(=O)c12 [Compound 203]	> 1000
CCC(C)(C)Cc1cc(=O)oc2[nH]c(=O)[nH]c(=O)c12 [Compound 204]	> 1000
O=c1[nH]c(=O)c2c(Cc3ccc(-c4ccccc4F)cc3)cc(=O)oc2[nH]1 [Compound 205]	100 to 1000
O=c1[nH]c(=O)c2c(CC3CC3)cc(=O)oc2[nH]1 [Compound 206]	100 to 1000
COc1ccc(-c2ccc(Cc3cc(=O)oc4[nH]c(=O)[nH]c(=O)c34)cc2)cc1 [Compound 207]	> 1000
O=c1[nH]c(=O)c2c(CCCOc3ccccc3)cc(=O)oc2[nH]1 [Compound 208]	> 1000
COCCCc1cc(=O)oc2[nH]c(=O)[nH]c(=O)c12 [Compound 209]	100 to 1000
O=c1cc(CCCCC2CC2)c2c(=O)[nH]c(=O)n(C3CCC3)c2o1 [Compound 210]	100 to 1000
O=c1[nH]c(=O)c2c3c(c(=O)oc2[nH]1)CCCCCC3 [Compound 211]	> 1000
O=c1[nH]c(=O)c2c(C3CCCCC3)cc(=O)oc2[nH]1 [Compound 212]	100 to 1000
O=c1[nH]c(=O)c2c(CC3CCCC(C(F)(F)F)C3)cc(=O)oc2[nH]1 (stereo not shown) [Compound 213]	100 to 1000
CCCC/C=C/c1c(CC)c2c(=O)[nH]c(=O)[nH]c2oc1=O [Compound 214]	> 1000
O=c1[nH]c(=O)c2c(CCC34CC5CC(CC(C5)C3)C4)cc(=O)oc2[nH]1 [Compound 215]	> 1000
COC(=O)CCc1cc(=O)oc2[nH]c(=O)[nH]c(=O)c12 [Compound 216]	100 to 1000
CC#CCCc1cc(=O)oc2[nH]c(=O)[nH]c(=O)c12 [Compound 217]	> 1000
CCCC(C)c1cc(=O)oc2[nH]c(=O)[nH]c(=O)c12 (stereo not shown) [Compound 218]	100 to 1000
CCc1c(C#Cc2ccccc2)c(=O)oc2[nH]c(=O)[nH]c(=O)c12 [Compound 219]	> 1000
O=c1[nH]c(=O)c2c(CCC#Cc3ccccc3)cc(=O)oc2[nH]1 [Compound 220]	> 1000
CC(C)(C)OC(=O)N1CCC(Cc2cc(=O)oc3[nH]c(=O)[nH]c(=O)c23)CC1 [Compound 221]	> 1000
CCOC(=O)CCc1cc(=O)oc2[nH]c(=O)[nH]c(=O)c12 [Compound 222]	> 1000

Compound	EC50 [nM]
O=c1[nH]c(=O)c2c(CC3CCC(F)(F)CC3)cc(=O)oc2[nH]1 [Compound 223]	0.001 to 100
O=c1cc(CCCC2CC2)c2c(=O)n(C3CCC3)c(=O)[nH]c2o1 [Compound 224]	0.001 to 100
CSCCCc1cc(=O)oc2[nH]c(=O)[nH]c(=O)c12 [Compound 225]	0.001 to 100
C#CCCCCc1cc(=O)oc2[nH]c(=O)[nH]c(=O)c12 [Compound 226]	0.001 to 100
O=c1[nH]c(=O)c2c(C3CCCC3)cc(=O)oc2[nH]1 [Compound 227]	> 1000
O=C(NCCCc1cc(=O)oc2[nH]c(=O)[nH]c(=O)c12)OCc1ccccc1 [Compound 228]	> 1000
O=c1[nH]c(=O)c2c(CCc3cccs3)cc(=O)oc2[nH]1 [Compound 229]	0.001 to 100
N#Cc1cccc(Cc2cc(=O)oc3[nH]c(=O)[nH]c(=O)c23)c1 [Compound 231]	> 1000
O=C(OCc1ccccc1)N1CCC(Cc2cc(=O)oc3[nH]c(=O)[nH]c(=O)c23)C1 (stereo not shown) [Compound 233]	> 1000
O=C(OCc1ccccc1)N1CCC(CCc2cc(=O)oc3[nH]c(=O)[nH]c(=O)c23)CC1 [Compound 234]	> 1000
O=c1[nH]c(=O)c2c(CC3CCC4CC34)cc(=O)oc2[nH]1 (stereo not shown) [Compound 235]	0.001 to 100
CC(=O)NCCCc1cc(=O)oc2[nH]c(=O)[nH]c(=O)c12 [Compound 237]	> 1000
CCOCCCc1cc(=O)oc2[nH]c(=O)[nH]c(=O)c12 [Compound 239]	0.001 to 100
CC(C)(C)Cc1cc(=O)oc2[nH]c(=O)[nH]c(=O)c12 [Compound 240]	> 1000
O=c1cc(CCC2CCCC2)c2c(=O)n(C3CCC3)c(=O)[nH]c2o1 [Compound 241]	0.001 to 100
O=c1cc(CCC2CCCC2)c2c(=O)[nH]c(=O)n(C3CCC3)c2o1 [Compound 242]	> 1000
Cc1ccccc1-c1cc(CCCc2cc(=O)oc3[nH]c(=O)[nH]c(=O)c23)on1 [Compound 243]	100 to 1000
O=c1[nH]c(=O)c2c(CC3CCNC3)cc(=O)oc2[nH]1 (stereo not shown) [Compound 244]	> 1000
CC(C)CCc1cc(=O)oc2[nH]c(=O)n(C3CCC3)c(=O)c12 [Compound 245]	0.001 to 100
CC1CCC(Cc2cc(=O)oc3[nH]c(=O)n(C4CCC4)c(=O)c23)CC1 (stereo not shown) [Compound 246]	> 1000
CCC(C)CCc1cc(=O)oc2[nH]c(=O)[nH]c(=O)c12 (stereo not shown) [Compound 247]	0.001 to 100
CC(Cc1cc(=O)oc2[nH]c(=O)[nH]c(=O)c12)CC(C)(C)C (stereo not shown) [Compound 248]	> 1000
O=c1[nH]c(=O)c2c(CCCc3cc(-c4cccc(C(F)(F)F)c4)no3)cc(=O)oc2[nH]1 [Compound 249]	100 to 1000

Compound	EC50 [nM]
CCOC(=O)Cn1cc(CCCc2cc(=O)oc3[nH]c(=O)[nH]c(=O)c23)nn1 [Compound 250]	> 1000
O=c1[nH]c(=O)c2c(CCCc3cn(Cc4ccccc4)nn3)cc(=O)oc2[nH]1 [Compound 251]	100 to 1000
Cc1cc(=O)oc2[nH]c(=O)n(C3CCC3)c(=O)c12 [Compound 252]	0.001 to 100
CC/C=C\CCc1cc(=O)oc2c1c(=O)[nH]c(=O)n2CC1CC1 [Compound 253]	> 1000
CC/C=C\CCc1cc(=O)oc2[nH]c(=O)n(CC3CC3)c(=O)c12 [Compound 254]	> 1000
O=c1cc(CCCc2cccs2)c2c(=O)[nH]c(=O)n(CC3CC3)c2o1 [Compound 255]	> 1000
O=c1cc(CCCc2cccs2)c2c(=O)n(CC3CC3)c(=O)[nH]c2o1 [Compound 256]	> 1000
CCCCc1cc(=O)oc2c1c(=O)[nH]c(=O)n2CC1CC1 [Compound 257]	> 1000
CCCCc1cc(=O)oc2[nH]c(=O)n(CC3CC3)c(=O)c12 [Compound 258]	100 to 1000
CC(C)CCc1cc(=O)oc2c1c(=O)[nH]c(=O)n2CC1CC1 [Compound 259]	> 1000
CC(C)CCc1cc(=O)oc2[nH]c(=O)n(CC3CC3)c(=O)c12 [Compound 260]	> 1000
COc1ccc(-c2cc(CCCc3cc(=O)oc4[nH]c(=O)[nH]c(=O)c34)on2)cc1 [Compound 261]	100 to 1000
CC(C)(C)CCCc1cc(=O)oc2[nH]c(=O)[nH]c(=O)c12 [Compound 262]	0.001 to 100
CC(C)(C)CCc1cc(=O)oc2[nH]c(=O)[nH]c(=O)c12 [Compound 263]	> 1000
O=c1[nH]c(=O)c2c(CCCOCc3ccccc3)cc(=O)oc2[nH]1 [Compound 264]	> 1000
O=c1[nH]c(=O)c2c(Cc3cccc4ccccc34)cc(=O)oc2[nH]1 [Compound 265]	> 1000
CCC(CC)Cc1cc(=O)oc2[nH]c(=O)[nH]c(=O)c12 [Compound 267]	> 1000
CCC(CC)CCc1cc(=O)oc2[nH]c(=O)[nH]c(=O)c12 [Compound 269]	100 to 1000
CCCOCCCc1cc(=O)oc2[nH]c(=O)[nH]c(=O)c12 [Compound 270]	0.001 to 100
O=c1[nH]c(=O)c2c(CCCOC3CCCC3)cc(=O)oc2[nH]1 [Compound 271]	100 to 1000
CC1(CCc2cc(=O)oc3[nH]c(=O)[nH]c(=O)c23)CC1 [Compound 272]	100 to 1000
O=c1[nH]c(=O)c2c(CCCOCC3CC3)cc(=O)oc2[nH]1 [Compound 273]	100 to 1000
O=c1cc(CCC2CC2)c2c(=O)[nH]c(=O)n(C3CCC3)c2o1 [Compound 274]	100 to 1000

Same assay, conditions: inhibition of forskolin-stimulated cAMP accumulation, CHO cells expressing recombinant human NAR; read-out: NA EC50 camp

Compound	EC50 [nM]
CCc1cc(=O)oc2[nH]c(=O)n(C3CCC3)c(=O)c12 [Compound 35]	9
CCc1cc(=O)oc2nc(OCc3ccccc3F)[nH]c(=O)c12 [Compound 74]	183
CCc1cc(=O)oc2nc(OC(C)c3ccccc3F)[nH]c(=O)c12 (stereo not shown) [Compound 90]	475
CCCCc1cc(=O)oc2[nH]c(=O)[nH]c(=O)c12 [Compound 102]	31
O=c1[nH]c(=O)c2c(CC3CCCCC3)cc(=O)oc2[nH]1 [Compound 103]	74.3
O=c1[nH]c(=O)c2c(CC3CCCC3)cc(=O)oc2[nH]1 [Compound 104]	47
O=c1[nH]c(=O)c2c(CCCCC(F)(F)F)cc(=O)oc2[nH]1 [Compound 112]	14.4
O=c1[nH]c(=O)c2c(CC3CC3)cc(=O)oc2[nH]1 [Compound 117]	155
O=c1[nH]c(=O)c2c(CCC3CCCCC3)cc(=O)oc2[nH]1 [Compound 124]	78.5
O=c1[nH]c(=O)c2c(CCC3CCCC3)cc(=O)oc2[nH]1 [Compound 125]	1.2
CC1CCC(Cc2cc(=O)oc3[nH]c(=O)[nH]c(=O)c23)CC1 (stereo not shown) [Compound 127]	57.3
C#CCCCc1cc(=O)oc2[nH]c(=O)[nH]c(=O)c12 [Compound 128]	6.3
O=c1[nH]c(=O)c2c(Cc3ccsc3)cc(=O)oc2[nH]1 [Compound 135]	4.8
O=c1[nH]c(=O)c2c(CC3CCC(F)(F)CC3)cc(=O)oc2[nH]1 [Compound 223]	26.5
O=c1cc(CCC2CCCC2)c2c(=O)n(C3CCC3)c(=O)[nH]c2o1 [Compound 241]	13
CC(C)(C)CCCc1cc(=O)oc2[nH]c(=O)[nH]c(=O)c12 [Compound 262]	49.9
